Measured values published in ChEMBL document CHEMBL4613209, “Quinolone hybrids and their anti-cancer activities: An overview” (Eur J Med Chem, 2019).

How the values were obtained:
Assay type in all cases: functional, cell-based
HCT-116 = experiment: Cytotoxicity against human HCT116 cells assessed as reduction in cell viability by SRB assay
NCI-H460 = experiment: Cytotoxicity against human NCI-H460 cells assessed as reduction in cell viability by SRB assay
U-251 = experiment: Cytotoxicity against human U251 cells assessed as reduction in cell viability by SRB assay
L1210 [1] = experiment: Cytotoxicity against mouse L1210 cells assessed as reduction in cell viability
HL-60 [2] = experiment: Cytotoxicity against human HL60 cells assessed as reduction in cell viability
SMMC-7721 [3] = experiment: Cytotoxicity against human SMMC7721 cells assessed as reduction in cell viability
SMMC-7721 [4] = experiment: Antiproliferative activity against human SMMC7721 cells by MTT assay
L1210 [5] = experiment: Antiproliferative activity against mouse L1210 cells by MTT assay
HL-60 [6] = experiment: Antiproliferative activity against human HL60 cells by MTT assay
CAPAN-1 = experiment: Cytotoxicity against human Capan1 cells assessed as reduction in cell viability
Hep 3B2 = experiment: Cytotoxicity against human Hep3B cells assessed as reduction in cell viability

Compound | IC50 (HCT-116) | IC50 (NCI-H460) | IC50 (U-251) | IC50 (L1210 [1]) | IC50 (HL-60 [2]) | IC50 (SMMC-7721 [3]) | other results
O=C(CCCCCn1cc(C(=O)Nc2nc3ccccc3s2)c(=O)c2ccccc21)NO | 600 to 1000 nM | 600 to 1000 nM | 600 to 1000 nM | – | – | – | –
COc1ccc2c(c1)c(=O)c(C(=O)Nc1nc3ccccc3s1)cn2CCCCCC(=O)NO | 600 to 16000 nM | 600 to 16000 nM | 600 to 16000 nM | – | – | – | –
CCn1cc(-c2nnc(SC/C(=N/NC(N)=S)c3ccc(F)cc3)[nH]2)c(=O)c2cc(F)c(N3CCN(C)CC3)cc21 | – | – | – | 2700 to 8600 nM | 2700 to 8600 nM | 2700 to 8600 nM | –
O=C(O)c1cn(C2CC2)c2c(c1=O)C=C(F)C1=NN=C(c3cccc([N+](=O)[O-])c3)CN12 | – | – | – | – | – | – | IC50 (SMMC-7721 [4]): 1600 nM; IC50 (L1210 [5]): 3200 nM; IC50 (HL-60 [6]): 1000 to 48600 nM
O=c1[nH]c2ccccc2c2n[nH]c(/C=C/c3ccccc3)c12 | 160 to 300 nM | 160 to 300 nM | 160 to 300 nM | – | – | – | –
CCn1cc(-c2nnc(SC/C(=N/NC(N)=S)c3ccc(O)cc3)[nH]2)c(=O)c2cc(F)c(N3CCN(C)CC3)cc21 | – | – | – | 2700 to 8600 nM | 2700 to 8600 nM | 2700 to 8600 nM | –
O=C(CCCCCn1cc(C(=O)Nc2nccs2)c(=O)c2ccccc21)NO | 5000 to 16000 nM | 5000 to 16000 nM | 5000 to 16000 nM | – | – | – | –
O=C(CCCCCn1cc(C(=O)Nc2nc3ccccc3s2)c(=O)c2cc(F)ccc21)NO | 600 to 16000 nM | 600 to 16000 nM | 600 to 16000 nM | – | – | – | –
O=C(O)c1cn(C2CC2)c2c(c1=O)C=C(F)C1=NN=C(c3ccc(O)cc3)CN12 | – | – | – | – | – | – | IC50 (SMMC-7721 [4]): 1000 to 48600 nM; IC50 (L1210 [5]): 1000 to 48600 nM; IC50 (HL-60 [6]): 1000 to 48600 nM
Nc1cccc(C2=NN=C3C(F)=Cc4c(n(C5CC5)cc(C(=O)O)c4=O)N3C2)c1 | – | – | – | – | – | – | IC50 (SMMC-7721 [4]): 1000 to 48600 nM; IC50 (L1210 [5]): 1000 to 48600 nM; IC50 (HL-60 [6]): 1000 to 48600 nM
O=c1[nH]c2ccccc2c2n[nH]c(-c3cn(-c4ccccc4)nc3-c3ccccc3)c12 | 160 to 300 nM | 160 to 300 nM | 160 to 300 nM | – | – | – | –
CCn1cc(-c2nnc(SC/C(=N/NC(N)=S)c3ccc(Cl)cc3)[nH]2)c(=O)c2cc(F)c(N3CCN(C)CC3)cc21 | – | – | – | 2700 to 27600 nM | 2700 to 27600 nM | 2700 to 27600 nM | –
CCn1cc(-c2nnc(SC/C(=N/NC(N)=S)c3ccccc3OC)[nH]2)c(=O)c2cc(F)c(N3CCN(C)CC3)cc21 | – | – | – | 2700 to 27600 nM | 2700 to 27600 nM | 2700 to 27600 nM | –
CN1CCN(c2cc3c(cc2F)c(=O)c(-c2nc4s/c(=C\c5ccc(Cl)cc5)c(=O)n4n2)cn3C2CC2)CC1 | – | – | – | – | > 10000 nM | – | IC50 (CAPAN-1): > 10000 nM; IC50 (Hep 3B2): > 10000 nM
CCn1cc(-c2nnc(SC/C(=N/NC(N)=S)c3ccc(OC)cc3)[nH]2)c(=O)c2cc(F)c(N3CCN(C)CC3)cc21 | – | – | – | 2700 to 27600 nM | 2700 to 27600 nM | 2700 to 27600 nM | –
CN1CCN(c2cc3c(cc2F)c(=O)c(-c2nc4s/c(=C\c5cccc(C(=O)O)c5)c(=O)n4n2)cn3C2CC2)CC1 | – | – | – | – | 300 to 8400 nM | – | IC50 (CAPAN-1): 300 to 8400 nM; IC50 (Hep 3B2): 300 to 8400 nM
O=c1[nH]c2ccccc2c2nn(-c3ccccc3)c(-c3cn(-c4ccccc4)nc3-c3ccccc3)c12 | 160 to 300 nM | 160 to 300 nM | 160 to 300 nM | – | – | – | –
CCn1cc(-c2nnc(SC/C(=N/NC(N)=S)c3ccc4c(c3)OCO4)[nH]2)c(=O)c2cc(F)c(N3CCN(C)CC3)cc21 | – | – | – | 2700 to 27600 nM | 2700 to 27600 nM | 2700 to 27600 nM | –
Nc1ccc(C2=NN=C3C(F)=Cc4c(n(C5CC5)cc(C(=O)O)c4=O)N3C2)cc1 | – | – | – | – | – | – | IC50 (SMMC-7721 [4]): 1000 to 48600 nM; IC50 (L1210 [5]): 1000 to 48600 nM; IC50 (HL-60 [6]): 1000 to 48600 nM
CN1CCN(c2cc3c(cc2F)c(=O)c(-c2nc4s/c(=C\c5cccc(S(N)(=O)=O)c5)c(=O)n4n2)cn3C2CC2)CC1 | – | – | – | – | 300 to 8400 nM | – | IC50 (CAPAN-1): 300 to 8400 nM; IC50 (Hep 3B2): 300 to 8400 nM
CCn1cc(-c2nnc(SC/C(=N/NC(N)=S)c3ccccc3)[nH]2)c(=O)c2cc(F)c(N3CCN(C)CC3)cc21 | – | – | – | 2700 to 27600 nM | 2700 to 27600 nM | 2700 to 27600 nM | –
Cn1nc(-c2ccccc2)cc1NC(=O)c1cn(CCCCCC(=O)NO)c2ccccc2c1=O | 600 to 16000 nM | 600 to 16000 nM | 600 to 16000 nM | – | – | – | –
CN1CCN(c2cc3c(cc2F)c(=O)c(-c2nc4s/c(=C\c5cccc(C#N)c5)c(=O)n4n2)cn3C2CC2)CC1 | – | – | – | – | > 10000 nM | – | IC50 (CAPAN-1): > 10000 nM; IC50 (Hep 3B2): > 10000 nM
CCn1cc(-c2nnc(SC/C(=N/NC(N)=S)c3ccc(OC)c(OC)c3)[nH]2)c(=O)c2cc(F)c(N3CCN(C)CC3)cc21 | – | – | – | 2700 to 27600 nM | 2700 to 27600 nM | 2700 to 27600 nM | –
